Results: US9382254B2, “Compounds and pharmaceutical compositions thereof for the treatment of cystic fibrosis” (Galapagos NV, priority 2013, dated 2016)

How the values were obtained:
Format in all cases: cell-based
CFTR ΔF508 mutant [1] = biological target: T1, CFTR ΔF508 mutant (Homo sapiens, UniProt P13569, DEL508-508); experiment: YFP-halide influx assay for the CFTR-ΔF508 mutation, PBS buffer (96 well); settings: CFBE41o- cells, forskolin 10.67 μM
T1 construct: expressed in transfected cells; host or cells: CFBE41o- (adenoviral transduction)
T1 sequence (P13569 with tags, fused parts or gaps DEL508-508): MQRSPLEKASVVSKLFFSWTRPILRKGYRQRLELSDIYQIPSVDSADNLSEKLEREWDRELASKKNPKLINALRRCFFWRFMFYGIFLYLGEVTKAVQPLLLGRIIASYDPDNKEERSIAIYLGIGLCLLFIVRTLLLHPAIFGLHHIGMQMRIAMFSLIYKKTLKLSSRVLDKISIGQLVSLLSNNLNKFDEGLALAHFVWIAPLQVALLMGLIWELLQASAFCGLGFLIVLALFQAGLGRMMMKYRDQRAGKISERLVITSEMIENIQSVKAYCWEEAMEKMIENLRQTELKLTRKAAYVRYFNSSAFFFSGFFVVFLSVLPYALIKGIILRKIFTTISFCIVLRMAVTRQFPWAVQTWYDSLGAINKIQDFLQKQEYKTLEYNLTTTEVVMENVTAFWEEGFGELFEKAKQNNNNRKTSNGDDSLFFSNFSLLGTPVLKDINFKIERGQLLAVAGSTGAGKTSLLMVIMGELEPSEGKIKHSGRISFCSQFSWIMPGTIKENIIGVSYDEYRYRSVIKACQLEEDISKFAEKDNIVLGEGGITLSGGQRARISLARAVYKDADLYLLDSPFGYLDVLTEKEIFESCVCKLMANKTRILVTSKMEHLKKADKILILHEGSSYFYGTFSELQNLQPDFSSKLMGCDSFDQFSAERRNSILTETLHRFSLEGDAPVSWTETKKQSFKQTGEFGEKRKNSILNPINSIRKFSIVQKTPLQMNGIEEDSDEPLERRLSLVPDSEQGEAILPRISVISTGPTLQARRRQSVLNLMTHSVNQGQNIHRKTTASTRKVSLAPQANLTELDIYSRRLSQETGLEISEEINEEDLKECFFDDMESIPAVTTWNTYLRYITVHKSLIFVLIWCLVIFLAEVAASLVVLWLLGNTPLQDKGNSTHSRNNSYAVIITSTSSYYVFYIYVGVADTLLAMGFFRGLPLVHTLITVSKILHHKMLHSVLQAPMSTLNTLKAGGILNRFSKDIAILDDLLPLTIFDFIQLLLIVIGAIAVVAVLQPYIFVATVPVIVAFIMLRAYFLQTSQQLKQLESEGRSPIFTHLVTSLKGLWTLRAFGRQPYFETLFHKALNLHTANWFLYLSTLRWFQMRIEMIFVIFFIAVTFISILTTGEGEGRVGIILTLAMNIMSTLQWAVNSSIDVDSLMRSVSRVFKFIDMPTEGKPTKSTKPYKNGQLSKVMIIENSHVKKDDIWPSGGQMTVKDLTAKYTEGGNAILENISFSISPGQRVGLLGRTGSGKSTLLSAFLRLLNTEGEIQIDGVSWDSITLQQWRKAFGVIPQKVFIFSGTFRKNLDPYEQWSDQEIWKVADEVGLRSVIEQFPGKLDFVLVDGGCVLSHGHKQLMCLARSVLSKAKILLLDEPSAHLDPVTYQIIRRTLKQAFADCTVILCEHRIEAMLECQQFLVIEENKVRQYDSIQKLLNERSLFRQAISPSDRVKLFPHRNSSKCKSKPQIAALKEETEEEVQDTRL
Text: The YFP halide influx assay measures the functionality of the cystic fibrosis Transmembrane Conductance regulator (CFTR) channels in the cystic fibrosis bronchial epithelium cell line CFBE41o-. The assay is used to evaluate the capacity of compounds to increase the open probability of existing CFTR channels in the membrane. It makes use of the observation that the yellow fluorescent protein (YFP) variant YFP H148Q, I152L has its fluorescence substantially quenched by halide ions like Cl^− and I^−. (Galietta, Haggie, & Verkman, 2001) (Nagai, et al., 2002)
For this purpose, CFBE41o-cells are seeded in 96 well plates (6000 CFBE cells/well). One day after seeding, the CFBE cells are transduced with adenoviral vectors that direct the expression of the CFTR ΔF508 mutant and of the YFP reporter. Cells are incubated at 27° C., 5% CO2 for 24 hours so as to allow for the proper folding and migration to the membrane of the CFTR channel or treated with a CFTR modulator during 24 hours at 37° C.
The I^− induced quenching of fluorescence is recorded immediately after injection of I^− for 7 seconds. The capacity of a compound to increase the channel opening is directly correlated with the decrease in fluorescence, and is expressed as (1-(fluorescence after 7 seconds (F)/fluorescence before injection (F0))) and an EC50 can be derived from a (1-F/F0) vs compound concentration plot.

CFTR ΔF508 mutant [2] = biological target: T1, CFTR ΔF508 mutant; experiment: YFP-halide influx assay for the CFTR-ΔF508 mutation (384 well, FDSS/μCell); settings: CFBE41o- cells, CFTR-ΔF508, 1×D-PBS, fluorescence after 36 seconds
How it was run: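 Potentiator read-out as 1−F/F0, F taken 36 s after iodide addition, EC50 fitted against compound concentration. Cells: CFBE41o- expressing ΔF508 CFTR plus halide-sensitive YFP via adenovirus, rescued by 27 °C for 24 h or 24 h modulator at 37 °C.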

CFTR G551D mutant = biological target: T2, CFTR G551D mutant (Homo sapiens, UniProt P13569, G551D); experiment: YFP-halide influx assay for the CFTR-G551D mutation; settings: HEK293 cells, forskolin 10.67 μM
T2 construct: expressed in transfected cells; host or cells: HEK293 (reverse transfection with plasmid)
T2 sequence (P13569 whole entry G551D): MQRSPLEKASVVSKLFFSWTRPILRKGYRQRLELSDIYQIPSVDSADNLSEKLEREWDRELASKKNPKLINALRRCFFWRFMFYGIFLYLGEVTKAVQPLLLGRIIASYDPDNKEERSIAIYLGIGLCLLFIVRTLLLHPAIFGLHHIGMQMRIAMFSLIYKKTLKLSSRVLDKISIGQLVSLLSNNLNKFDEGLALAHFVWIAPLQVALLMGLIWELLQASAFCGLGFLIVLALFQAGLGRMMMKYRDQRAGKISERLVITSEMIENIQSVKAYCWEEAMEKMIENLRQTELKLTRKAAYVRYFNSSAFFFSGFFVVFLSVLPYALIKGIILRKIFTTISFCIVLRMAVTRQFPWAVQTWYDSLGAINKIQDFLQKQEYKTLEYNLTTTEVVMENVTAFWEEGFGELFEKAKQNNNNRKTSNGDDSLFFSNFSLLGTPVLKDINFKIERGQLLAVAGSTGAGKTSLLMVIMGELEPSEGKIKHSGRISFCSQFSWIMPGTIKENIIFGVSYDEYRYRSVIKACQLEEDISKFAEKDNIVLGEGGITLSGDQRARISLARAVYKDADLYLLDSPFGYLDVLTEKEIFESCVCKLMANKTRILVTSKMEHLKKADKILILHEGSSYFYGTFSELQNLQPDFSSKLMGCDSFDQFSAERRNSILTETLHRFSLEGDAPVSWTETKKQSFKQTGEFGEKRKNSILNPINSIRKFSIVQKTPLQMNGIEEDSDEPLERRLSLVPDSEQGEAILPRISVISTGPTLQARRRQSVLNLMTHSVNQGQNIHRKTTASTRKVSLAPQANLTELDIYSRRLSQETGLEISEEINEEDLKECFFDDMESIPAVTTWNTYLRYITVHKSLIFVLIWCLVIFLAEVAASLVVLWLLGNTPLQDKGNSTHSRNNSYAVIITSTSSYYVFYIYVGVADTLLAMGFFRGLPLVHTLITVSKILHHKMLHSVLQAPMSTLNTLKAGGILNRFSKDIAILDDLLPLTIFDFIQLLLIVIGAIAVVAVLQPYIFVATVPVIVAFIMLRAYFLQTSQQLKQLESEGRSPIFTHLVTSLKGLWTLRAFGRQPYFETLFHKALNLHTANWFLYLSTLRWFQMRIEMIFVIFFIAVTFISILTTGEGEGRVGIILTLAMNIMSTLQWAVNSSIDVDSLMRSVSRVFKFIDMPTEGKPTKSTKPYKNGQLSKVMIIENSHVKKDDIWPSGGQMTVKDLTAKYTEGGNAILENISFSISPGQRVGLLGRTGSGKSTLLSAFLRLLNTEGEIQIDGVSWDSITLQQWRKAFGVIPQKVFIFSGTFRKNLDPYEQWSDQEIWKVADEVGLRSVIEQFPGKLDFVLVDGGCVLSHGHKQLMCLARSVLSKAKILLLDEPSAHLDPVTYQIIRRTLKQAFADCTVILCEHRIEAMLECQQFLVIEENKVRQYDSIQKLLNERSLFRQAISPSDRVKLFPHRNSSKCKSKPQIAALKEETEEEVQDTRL
How it was run: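 HEK293 cells reverse-transfected with CFTR G551D and YFP H148Q/I152L/F47L halide sensor, expressed 24 h at 37 °C. Iodide-induced fluorescence quench recorded 7 s after I− injection; response = 1−F/F0, with EC50 from plot against compound concentration.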

| Structure (SMILES) | EC50 (CFTR ΔF508 mutant [1]) [nM] | EC50 (CFTR ΔF508 mutant [2]) [nM] | EC50 (CFTR G551D mutant) [nM] |
| --- | --- | --- | --- |
| COc1ccc(S(=O)(=O)c2cc(C(N)=O)c(NC(=O)C3(O)CC3)s2)cc1 [Compound 245, 2-(1-hydroxycyclopropanecarboxamido)-5-(4-methoxyphenylsulfonyl) thiophene-3-carboxamide] | 60.3 | 113 | 621 |
| NC(=O)c1cc(S(=O)(=O)c2c(Cl)cccc2Cl)sc1NC(=O)C1(O)CC1 [Compound 247, 5-(2,6-dichlorophenylsulfonyl)-2-(1-hydroxycyclopropanecarboxamido) thiophene-3-carboxamide] | 10.8 | 18.5 | 113 |
| CN(Cc1ccc(F)cc1)S(=O)(=O)c1cc(C(N)=O)c(NC(=O)C2(O)CC2)s1 [Compound 231, 5-(N-(4-fluorobenzyl)-N-methylsulfamoyl)-2-(1-hydroxycyclopropanecarboxamido) thiophene-3-carboxamide] | 26 | 31.8 | 676 |
| NC(=O)c1cc(S(=O)(=O)c2ccccc2C(F)(F)F)sc1NC(=O)C1(O)CC1 [Compound 257, 2-(1-hydroxycyclopropanecarboxamido)-5-(2-(trifluoromethyl)phenylsulfonyl) thiophene-3-carboxamide] | 16.3 | 26.1 | 333 |
| COc1ccc(OC)c(S(=O)(=O)c2cc(C(N)=O)c(NC(=O)C3(O)CC3)s2)c1 [Compound 246, 5-(2,5-dimethoxyphenylsulfonyl)-2-(1-hydroxycyclopropanecarboxamido) thiophene-3-carboxamide] | 78.5 | 75.1 | 627 |
| NC(=O)c1cc(S(=O)(=O)c2ccc(F)cc2)sc1NC(=O)C1CCCC1O (stereo not drawn) [Compound 272, 5-(4-fluorophenylsulfonyl)-2-(2-hydroxycyclopentanecarboxamido) thiophene-3-carboxamide] | 48.9 | 102 | 771 |
| CC(C)(CO)C(=O)Nc1sc(S(=O)(=O)c2ccc(F)cc2)cc1C(N)=O [Compound 253, 5-(4-fluorophenylsulfonyl)-2-(3-hydroxy-2,2-dimethylpropanamido) thiophene-3-carboxamide] | 73 | 50.8 | 3330 |
| CC(C)(O)C(=O)Nc1sc(S(=O)(=O)c2ccc(F)cc2OC(F)F)cc1C(N)=O [Compound 283, 5-(2-(difluoromethoxy)-4-fluorophenylsulfonyl)-2-(2-hydroxy-2-methylpropanamido) thiophene-3-carboxamide] | 47.7 | 69.6 | 564 |
| CC(CO)C(=O)Nc1sc(S(=O)(=O)c2ccc(F)cc2)cc1C(N)=O (stereo not drawn) [Compound 273, 5-(4-fluorophenylsulfonyl)-2-(3-hydroxy-2-methylpropanamido) thiophene-3-carboxamide] | 111 | 148 | 3080 |
| CC(C)Oc1cc(F)ccc1S(=O)(=O)c1cc(C(N)=O)c(NC(=O)C(C)(C)O)s1 [Compound 281, 5-(4-fluoro-2-isopropoxyphenylsulfonyl)-2-(2-hydroxy-2-methylpropanamido) thiophene-3-carboxamide] | 41.1 | 136 | 1540 |
| CC1CN(S(=O)(=O)c2cc(C(N)=O)c(NC(=O)c3ccccc3C(F)(F)F)s2)C(C)(C)CO1 (stereo not drawn) [Compound 263, 2-(2-(trifluoromethyl)benzamido)-5-(2,5,5-trimethylmorpholinosulfonyl) thiophene-3-carboxamide] | 81.1 | 148 | 3330 |
| CC(C)c1ccccc1S(=O)(=O)c1cc(C(N)=O)c(NC(=O)C2(O)CC2)s1 [Compound 228, 2-(1-hydroxycyclopropanecarboxamido)-5-(2-isopropylphenylsulfonyl) thiophene-3-carboxamide] | 20.5 | 29 | 93 |
| CN(c1ccc(F)cc1)S(=O)(=O)c1cc(C(N)=O)c(NC(=O)C2(O)CC2)s1 [Compound 236, 5-(N-(4-fluorophenyl)-N-methylsulfamoyl)-2-(1-hydroxycyclopropanecarboxamido) thiophene-3-carboxamide] | 46.4 | 25.2 | 6660 |
| NC(=O)c1cc(S(=O)(=O)c2ccc(Cl)cc2)sc1NC(=O)C1(O)CC1 [Compound 225, 5-(4-chlorophenylsulfonyl)-2-(1-hydroxycyclopropanecarboxamido) thiophene-3-carboxamide] | 36.2 | 26.5 | 295 |
| CC(C)Oc1ccc(S(=O)(=O)c2cc(C(N)=O)c(NC(=O)C(C)(C)O)s2)cc1 [Compound 279, 2-(2-hydroxy-2-methylpropanamido)-5-(4-isopropoxyphenylsulfonyl) thiophene-3-carboxamide] | 55.5 | 116 | 614 |
| CC(O)C(=O)Nc1sc(S(=O)(=O)c2ccc(F)cc2)cc1C(N)=O (stereo not drawn) [Compound 248, 5-(4-fluorophenylsulfonyl)-2-(2-hydroxypropanamido) thiophene-3-carboxamide] | 85.8 | 70.1 | 1390 |

Other lines, results leading:

| EC50 (CFTR ΔF508 mutant [1]) [nM] | EC50 (CFTR ΔF508 mutant [2]) [nM] | EC50 (CFTR G551D mutant) [nM] | Structure (SMILES) |
| --- | --- | --- | --- |
| 31.5 | 23.9 | 803 | CN(Cc1ccc(F)cc1)S(=O)(=O)c1cc(C(N)=O)c(NC(=O)C(C)(C)O)s1 [Compound 305, 5-(N-(4-fluorobenzyl)-N-methylsulfamoyl)-2-(2-hydroxy-2-methylpropanamido) thiophene-3-carboxamide] |
| 95.2 | 35.6 | 1010 | COc1ccc(F)cc1S(=O)(=O)c1cc(C(N)=O)c(NC(=O)C(C)(C)O)s1 [Compound 295, 5-(5-fluoro-2-methoxyphenylsulfonyl)-2-(2-hydroxy-2-methylpropanamido) thiophene-3-carboxamide] |
| 81.2 | 17.3 | 1510 | C[C@H](O)C(=O)Nc1sc(S(=O)(=O)c2ccc(F)cc2)cc1C(N)=O [Compound 291, (S)-5-(4-fluorophenylsulfonyl)-2-(2-hydroxypropanamido) thiophene-3-carboxamide] |
| 32.8 | 28.5 | 793 | CC(C)(O)C(=O)Nc1sc(S(=O)(=O)N2CCOc3ccccc32)cc1C(N)=O [Compound 307, 5-(2H-benzo[b][1,4]oxazin-4(3H)-ylsulfonyl)-2-(2-hydroxy-2-methylpropanamido) thiophene-3-carboxamide] |
| 42.6 | 66.1 | 1760 | CC(C)(O)C(=O)Nc1sc(S(=O)(=O)c2ccc3c(c2)OC(F)(F)O3)cc1C(N)=O [Compound 310, 5-(2,2-difluorobenzo[d][1,3]dioxol-5-ylsulfonyl)-2-(2-hydroxy-2-methylpropanamido) thiophene-3-carboxamide] |
| 15.1 | 7.6 | 110 | CC(C)c1ccccc1S(=O)(=O)c1cc(C(N)=O)c(NC(=O)C(C)(C)O)s1 [Compound 293, 2-(2-hydroxy-2-methylpropanamido)-5-(2-isopropylphenylsulfonyl) thiophene-3-carboxamide] |
| 78.5 | 109 | 3330 | CN(c1ccc(F)cc1)S(=O)(=O)c1cc(C(N)=O)c(NC(=O)C(C)(C)O)s1 [Compound 304, 5-(N-(4-fluorophenyl)-N-methylsulfamoyl)-2-(2-hydroxy-2-methylpropanamido) thiophene-3-carboxamide] |
